Data taken from patent publication US20260297081A1, “COMPOUNDS AND METHODS OF TREATING CANCERS” (Cullgen Inc., priority 2023, published 2026).

Target: CDK4 (Homo sapiens, UniProt P11802+Q16531)
Assay: CDK4 percentage degradation in Calu-1 cells (Table 6)
Type: cell-based
Parameters: Cells that express cyclin D1-3 and CDK4/6 proteins were treated with heterobifunctional compounds; endogenous in cells; host or cells: Calu-1
Conditions: 16 hours; for inhibition at 0.04 µM: 40 nM; for inhibition at 0.2 µM: 200 nM
Method in brief: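 Percentage degradation of Cyclin D1 and CDK4 derived from densitometry of ECL Western blots on lysates of Calu-1 cells. Treatment was 16 h with compound at either 40 nM or 200 nM.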

Chain of CDK4 (P11802 2-303 limits assumed): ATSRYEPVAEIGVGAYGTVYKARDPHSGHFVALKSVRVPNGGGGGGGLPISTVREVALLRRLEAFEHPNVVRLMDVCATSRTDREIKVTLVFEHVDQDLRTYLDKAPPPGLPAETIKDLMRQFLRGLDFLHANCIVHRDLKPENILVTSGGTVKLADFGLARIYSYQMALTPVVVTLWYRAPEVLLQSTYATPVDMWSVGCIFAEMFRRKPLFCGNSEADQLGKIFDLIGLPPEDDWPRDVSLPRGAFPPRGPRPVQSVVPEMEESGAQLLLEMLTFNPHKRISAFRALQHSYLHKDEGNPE
Chain of CDK4 (P24385 whole entry partner): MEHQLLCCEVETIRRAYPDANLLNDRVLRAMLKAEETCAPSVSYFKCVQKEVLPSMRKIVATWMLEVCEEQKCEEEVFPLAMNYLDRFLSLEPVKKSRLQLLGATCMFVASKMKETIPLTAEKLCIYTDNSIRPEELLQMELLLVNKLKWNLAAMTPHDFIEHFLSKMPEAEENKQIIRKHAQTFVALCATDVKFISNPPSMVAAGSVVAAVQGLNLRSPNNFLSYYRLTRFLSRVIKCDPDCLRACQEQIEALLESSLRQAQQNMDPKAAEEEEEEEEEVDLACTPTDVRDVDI
Chain of CDK4 (Q16531 2-1140 limits assumed): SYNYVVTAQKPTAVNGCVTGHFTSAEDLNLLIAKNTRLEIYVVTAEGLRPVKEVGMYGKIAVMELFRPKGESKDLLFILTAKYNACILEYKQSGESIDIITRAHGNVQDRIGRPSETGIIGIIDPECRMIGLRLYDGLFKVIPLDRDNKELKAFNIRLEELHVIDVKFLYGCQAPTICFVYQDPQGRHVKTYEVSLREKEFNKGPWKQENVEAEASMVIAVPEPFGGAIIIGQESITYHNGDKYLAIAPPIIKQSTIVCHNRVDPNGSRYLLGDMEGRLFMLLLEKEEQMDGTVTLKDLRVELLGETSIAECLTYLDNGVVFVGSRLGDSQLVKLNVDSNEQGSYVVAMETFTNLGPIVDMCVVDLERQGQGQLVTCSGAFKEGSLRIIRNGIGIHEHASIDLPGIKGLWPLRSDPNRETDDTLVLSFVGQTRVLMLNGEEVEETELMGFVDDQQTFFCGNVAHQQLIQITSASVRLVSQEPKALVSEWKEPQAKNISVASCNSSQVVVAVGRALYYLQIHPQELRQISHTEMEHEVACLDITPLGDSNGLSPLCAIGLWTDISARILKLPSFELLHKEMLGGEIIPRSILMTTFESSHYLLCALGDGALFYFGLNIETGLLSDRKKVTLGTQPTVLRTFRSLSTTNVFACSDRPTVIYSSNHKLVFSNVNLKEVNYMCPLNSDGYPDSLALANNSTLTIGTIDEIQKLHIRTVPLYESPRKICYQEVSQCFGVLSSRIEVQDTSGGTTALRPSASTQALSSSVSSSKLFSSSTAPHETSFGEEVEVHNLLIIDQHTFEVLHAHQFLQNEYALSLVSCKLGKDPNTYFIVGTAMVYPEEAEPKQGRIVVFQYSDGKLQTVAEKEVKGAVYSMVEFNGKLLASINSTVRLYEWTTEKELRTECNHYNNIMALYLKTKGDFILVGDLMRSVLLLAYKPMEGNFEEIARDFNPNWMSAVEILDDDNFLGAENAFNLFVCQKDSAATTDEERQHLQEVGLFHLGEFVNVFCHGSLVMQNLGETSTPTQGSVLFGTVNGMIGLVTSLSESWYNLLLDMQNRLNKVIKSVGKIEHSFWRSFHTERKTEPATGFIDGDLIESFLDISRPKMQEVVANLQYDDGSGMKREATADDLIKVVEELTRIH

Structure (SMILES)	inhibition at 0.04 µM	inhibition at 0.2 µM
[2H]C([2H])([2H])Nc1ccc(C(=O)Nc2cc(C)on2)c(NC2CC3(CC(NC(=O)CN4CCN(c5ccc(Nc6ncc7c(C)c(C(C)=O)c(=O)n(C8CCCC8)c7n6)nc5)CC4)C3)C2)n1 (centres unmarked) [CPD-225, 2-((6-(2-(4-(6-((6-acetyl-8-cyclopentyl-5-methyl-7-oxo-7,8-dihydropyrido[2,3-d]pyrimidin-2-yl)amino)pyridin-3-yl)piperazin-1-yl)acetamido)spiro[3.3]heptan-2-yl)amino)-6-((methyl-d3)amino)-N-(5-methylisoxazol-3-yl)nicotinamide]	30 to 50%	50 to 80%
[2H]C([2H])([2H])Nc1ccc(C(=O)Nc2cccc(C)n2)c(NC2CC3(C2)CC(OC(C)(C)C(=O)N2CCN(c4ccc(Nc5ncc6c(C)c(C(C)=O)c(=O)n(C7CCCC7)c6n5)nc4)CC2)C3)n1 (centres unmarked) [CPD-226, 2-((6-((1-(4-(6-((6-acetyl-8-cyclopentyl-5-methyl-7-oxo-7,8-dihydropyrido[2,3-d]pyrimidin-2-yl)amino)pyridin-3-yl)piperazin-1-yl)-2-methyl-1-oxopropan-2-yl)oxy)spiro[3.3]heptan-2-yl)amino)-6-((methyl-d3)amino)-N-(6-methylpyridin-2-yl)nicotinamide]	< 30%	30 to 50%
CNc1ccc(C(=O)Nc2cc(C(C)C)on2)c(NC2CC3(CC(NC(=O)CN4CCN(c5ccc(Nc6ncc7c(C)c(C(C)=O)c(=O)n(C8CCCC8)c7n6)nc5)CC4)C3)C2)n1 (centres unmarked) [CPD-227, 2-((6-(2-(4-(6-((6-acetyl-8-cyclopentyl-5-methyl-7-oxo-7,8-dihydropyrido[2,3-d]pyrimidin-2-yl)amino)pyridin-3-yl)piperazin-1-yl)acetamido)spiro[3.3]heptan-2-yl)amino)-N-(5-isopropylisoxazol-3-yl)-6-(methylamino)nicotinamide]	< 30%	< 30%
CNc1ccc(C(=O)Nc2cc(C)n(C)n2)c(NC2CCN(C(=O)CN3CCN(c4ccc(Nc5ncc6c(C)c(C(C)=O)c(=O)n(C7CCCC7)c6n5)nc4)CC3)CC2)n1 [CPD-228, 2-((1-(2-(4-(6-((6-acetyl-8-cyclopentyl-5-methyl-7-oxo-7,8-dihydropyrido[2,3-d]pyrimidin-2-yl)amino)pyridin-3-yl)piperazin-1-yl)acetyl)piperidin-4-yl)amino)-N-(1,5-dimethyl-1H-pyrazol-3-yl)-6-(methylamino)nicotinamide]	< 30%	30 to 50%
CNc1ccc(C(=O)Nc2cc(C)on2)c(NC2CCN(C(=O)CN3CCN(c4ccc(Nc5ncc6c(C)c(C(C)=O)c(=O)n(C7CCCC7)c6n5)nc4)CC3)CC2)n1 [CPD-229, 2-((1-(2-(4-(6-((6-acetyl-8-cyclopentyl-5-methyl-7-oxo-7,8-dihydropyrido[2,3-d]pyrimidin-2-yl)amino)pyridin-3-yl)piperazin-1-yl)acetyl)piperidin-4-yl)amino)-6-(methylamino)-N-(5-methylisoxazol-3-yl)nicotinamide]	30 to 50%	50 to 80%
[2H]C([2H])([2H])Nc1ccc(C(=O)Nc2cc(C)n(C)n2)c(NC2CCN(C(=O)CN3CCN(c4ccc(Nc5ncc6c(C)c(C(C)=O)c(=O)n(C7CCCC7)c6n5)nc4)CC3)CC2)n1 [CPD-230, 2-((1-(2-(4-(6-((6-acetyl-8-cyclopentyl-5-methyl-7-oxo-7,8-dihydropyrido[2,3-d]pyrimidin-2-yl)amino)pyridin-3-yl)piperazin-1-yl)acetyl)piperidin-4-yl)amino)-N-(1,5-dimethyl-1H-pyrazol-3-yl)-6-((methyl-d3)amino)nicotinamide]	< 30%	30 to 50%
[2H]C([2H])([2H])Nc1ccc(C(=O)Nc2cc(C)on2)c(NC2CCN(C(=O)CN3CCN(c4ccc(Nc5ncc6c(C)c(C(C)=O)c(=O)n(C7CCCC7)c6n5)nc4)CC3)CC2)n1 [CPD-231, 2-((1-(2-(4-(6-((6-acetyl-8-cyclopentyl-5-methyl-7-oxo-7,8-dihydropyrido[2,3-d]pyrimidin-2-yl)amino)pyridin-3-yl)piperazin-1-yl)acetyl)piperidin-4-yl)amino)-6-((methyl-d3)amino)-N-(5-methylisoxazol-3-yl)nicotinamide]	30 to 50%	50 to 80%
[2H]C([2H])([2H])Nc1ccc(C(=O)Nc2cc(C)n(C)n2)c(NC2CN(C(=O)C(F)(F)CN3CCN(c4ccc(Nc5ncc6c(C)c(C(C)=O)c(=O)n(C7CCCC7)c6n5)nc4)CC3)C2)n1 [CPD-233, 2-((1-(3-(4-(6-((6-acetyl-8-cyclopentyl-5-methyl-7-oxo-7,8-dihydropyrido[2,3-d]pyrimidin-2-yl)amino)pyridin-3-yl)piperazin-1-yl)-2,2-difluoropropanoyl)azetidin-3-yl)amino)-N-(1,5-dimethyl-1H-pyrazol-3-yl)-6-((methyl-d3)amino)nicotinamide]	< 30%	30 to 50%

Now from value to compound:

inhibition at 0.04 µM	inhibition at 0.2 µM	Structure (SMILES)
< 30%	< 30%	[2H]C([2H])([2H])Nc1ccc(C(=O)Nc2cc(C)on2)c(NC2CN(C(=O)C(F)(F)CN3CCN(c4ccc(Nc5ncc6c(C)c(C(C)=O)c(=O)n(C7CCCC7)c6n5)nc4)CC3)C2)n1 [CPD-234, 2-((1-(3-(4-(6-((6-acetyl-8-cyclopentyl-5-methyl-7-oxo-7,8-dihydropyrido[2,3-d]pyrimidin-2-yl)amino)pyridin-3-yl)piperazin-1-yl)-2,2-difluoropropanoyl)azetidin-3-yl)amino)-6-((methyl-d3)amino)-N-(5-methylisoxazol-3methyl-yl)nicotinamide]
< 30%	50 to 80%	CNc1ccc(C(=O)Nc2ccc(N(C)C)nn2)c(NC2CCC3(C2)CN(C(=O)CN2CCN(c4ccc(Nc5ncc6c(C)c(C(C)=O)c(=O)n(C7CCCC7)c6n5)nc4)CC2)C3)n1 (centres unmarked) [CPD-235, 2-((2-(2-(4-(6-((6-acetyl-8-cyclopentyl-5-methyl-7-oxo-7,8-dihydropyrido[2,3-d]pyrimidin-2-yl)amino)pyridin-3-yl)piperazin-1-yl)acetyl)-2-azaspiro[3.4]octan-6-yl)amino)-N-(6-(dimethylamino)pyridazin-3-yl)-6-(methylamino)nicotinamide]
30 to 50%	50 to 80%	[2H]C([2H])([2H])Nc1ccc(C(=O)Nc2cn(C)c(C3CC3)n2)c(NC2CCN(C(=O)CN3CCN(c4ccc(Nc5ncc6c(C)c(C(C)=O)c(=O)n(C7CCCC7)c6n5)nc4)CC3)CC2)n1 [CPD-236, 2-((1-(2-(4-(6-((6-acetyl-8-cyclopentyl-5-methyl-7-oxo-7,8-dihydropyrido[2,3-d]pyrimidin-2-yl)amino)pyridin-3-yl)piperazin-1-yl)acetyl)piperidin-4-yl)amino)-N-(2-cyclopropyl-1-methyl-1H-imidazol-4-yl)-6-((methyl-d3)amino)nicotinamide]
< 30%	< 30%	CNc1ccc(C(=O)Nc2cn(C(C)C)c(C)n2)c(NC2CC3(CC(NC(=O)CN4CCN(c5ccc(Nc6ncc7c(C)c(C(C)=O)c(=O)n(C8CCCC8)c7n6)nc5)CC4)C3)C2)n1 (centres unmarked) [CPD-238, 2-((6-(2-(4-(6-((6-acetyl-8-cyclopentyl-5-methyl-7-oxo-7,8-dihydropyrido[2,3-d]pyrimidin-2-yl)amino)pyridin-3-yl)piperazin-1-yl)acetamido)spiro[3.3]heptan-2-yl)amino)-N-(1-isopropyl-2-methyl-1H-imidazol-4-yl)-6-(methylamino)nicotinamide]
30 to 50%	50 to 80%	[2H]C([2H])([2H])Nc1ccc(C(=O)Nc2ccc(F)c(C3CC3)n2)c(NC2CC3(CC(NC(=O)CN4CCN(c5ccc(Nc6ncc7c(C)c(C(C)=O)c(=O)n(C8CCCC8)c7n6)nc5)CC4)C3)C2)n1 (centres unmarked) [CPD-239, 2-((6-(2-(4-(6-((6-acetyl-8-cyclopentyl-5-methyl-7-oxo-7,8-dihydropyrido[2,3-d]pyrimidin-2-yl)amino)pyridin-3-yl)piperazin-1-yl)acetamido)spiro[3.3]heptan-2-yl)amino)-N-(6-cyclopropyl-5-fluoropyridin-2-yl)-6-((methyl-da)amino)nicotinamide]
30 to 50%	30 to 50%	CNc1ccc(C(=O)Nc2cccc(C3CC3)n2)c(NC2CC(NC(=O)CN3CCN(c4ccc(Nc5ncc6c(C)c(C(C)=O)c(=O)n(C7CCCC7)c6n5)nc4)CC3)C2)n1 (centres unmarked) [CPD-240, 2-((3-(2-(4-(6-((6-acetyl-8-cyclopentyl-5-methyl-7-oxo-7,8-dihydropyrido[2,3-d]pyrimidin-2-yl)amino)pyridin-3-yl)piperazin-1-yl)acetamido)cyclobutyl)amino)-N-(6-cyclopropylpyridin-2-yl)-6-(methylamino)nicotinamide]
50 to 80%	50 to 80%	CNc1ccc(C(=O)Nc2ccc(N(C)C)nn2)c(NC2CC(NC(=O)C(C)(C)N3CCN(c4ccc(Nc5ncc6c(C)c(C(C)=O)c(=O)n(C7CCCC7)c6n5)nc4)CC3)C2)n1 (centres unmarked) [CPD-243, 2-((3-(2-(4-(6-((6-acetyl-8-cyclopentyl-5-methyl-7-oxo-7,8-dihydropyrido[2,3-d]pyrimidin-2-yl)amino)pyridin-3-yl)piperazin-1-yl)-2-methylpropanamido)cyclobutyl)amino)-N-(6-(dimethylamino)pyridazin-3-yl)-6-(methylamino)nicotinamide]
30 to 50%	50 to 80%	[2H]C([2H])([2H])Nc1ccc(C(=O)Nc2ccc(N(C)C)nn2)c(NC2CC(NC(=O)CN3CCN(c4ccc(Nc5ncc6c(C)c(C(C)=O)c(=O)n(C7CCCC7)c6n5)nc4)CC3)C2)n1 (centres unmarked) [CPD-245, 2-((3-(2-(4-(6-((6-acetyl-8-cyclopentyl-5-methyl-7-oxo-7,8-dihydropyrido[2,3-d]pyrimidin-2-yl)amino)pyridin-3-yl)piperazin-1-yl)acetamido)cyclobutyl)amino)-N-(6-(dimethylamino)pyridazin-3-yl)-6-((methyl-d3)amino)nicotinamide]
